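Values below derive from 48-hour exposures of cells grown in 96-well plates, with endpoints linearly interpolated between the two concentrations bracketing the appropriate inhibition level. TGI is the concentration that stops growth completely.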
Assays:
Assay in all cases: NCI-60 cell line screen, 48 h
[1] = test system: 786-0 renal
[2] = test system: A498 renal
[3] = test system: A549 NSCLC
[4] = test system: BT-549 breast
[5] = test system: CAKI-1 renal
[6] = test system: CCRF-CEM leukemia
[7] = test system: COLO 205 colon
[8] = test system: DU-145 prostate
[9] = test system: EKVX NSCLC
[10] = test system: HCC-2998 colon
[11] = test system: HCT-116 colon
[12] = test system: HCT-15 colon
[13] = test system: HL-60(TB) leukemia
[14] = test system: HOP-62 NSCLC
[15] = test system: HOP-92 NSCLC
[16] = test system: HS 578T breast
[17] = test system: HT29 colon
[18] = test system: IGROV1 ovarian
[19] = test system: K-562 leukemia
[20] = test system: KM12 colon
[21] = test system: LOX IMVI melanoma
[22] = test system: M14 melanoma
[23] = test system: MALME-3M melanoma
[24] = test system: MCF7 breast
[25] = test system: MDA-MB-231 breast
[26] = test system: MDA-MB-435
[27] = test system: MDA-N
[28] = test system: MOLT-4 leukemia
[29] = test system: NCI-H226 lung
[30] = test system: NCI-H23 lung
[31] = test system: NCI-H460 lung
[32] = test system: NCI/ADR-RES ovarian
[33] = test system: OVCAR-3 ovarian
[34] = test system: OVCAR-4 ovarian
[35] = test system: OVCAR-5 ovarian
[36] = test system: OVCAR-8 ovarian
[37] = test system: PC-3 prostate
[38] = test system: RPMI-8226 leukemia
[39] = test system: RXF 393 renal
[40] = test system: SF-268 CNS
[41] = test system: SF-295 CNS
[42] = test system: SF-539 CNS
[43] = test system: SK-MEL-2 melanoma
[44] = test system: SK-MEL-28 melanoma
[45] = test system: SK-MEL-5 melanoma
[46] = test system: SK-OV-3 ovarian
[47] = test system: SN12C renal
[48] = test system: SNB-19 CNS
[49] = test system: SNB-75 CNS
[50] = test system: SR leukemia
[51] = test system: SW-620 colon
[52] = test system: T-47D breast
[53] = test system: U251 CNS
[54] = test system: UACC-257 melanoma
[55] = test system: UACC-62 melanoma
[56] = test system: UO-31 renal
[57] = test system: ACHN renal
[58] = test system: DLD-1 colon
[59] = test system: KM20L2 colon
[60] = test system: LXFL 529 NSCLC
[61] = test system: NCI-H522 lung
[62] = test system: SNB-78 CNS
[63] = test system: TK-10 renal

What does the source list for `Cc1cc(-c2ccc(C(=O)C(c3ccccc3)(c3ccccc3)c3ccccc3)[nH]2)on1`?
TGI [1]: 40.7 µM; TGI [2]: > 100 µM; TGI [3]: 45.6 µM; TGI [4]: 45.8 µM; TGI [5]: 69.5 µM; TGI [6]: 52.9 µM; TGI [7]: 42.2 µM; TGI [8]: 50.3 µM; TGI [9]: 39.9 µM; TGI [10]: 25.6 µM; TGI [11]: 27.9 µM; TGI [12]: 41.6 µM; TGI [13]: 26.1 µM; TGI [14]: 53.5 µM; TGI [15]: 51.8 µM; TGI [16]: > 100 µM; TGI [17]: 25.6 µM; TGI [18]: 73.9 µM; TGI [19]: > 100 µM; TGI [20]: 47.5 µM; TGI [21]: 53.3 µM; TGI [22]: 71.8 µM; TGI [23]: > 100 µM; TGI [24]: > 100 µM; TGI [25]: 49.6 µM; TGI [26]: 67.7 µM; TGI [27]: 41 µM; TGI [28]: 84.9 µM; TGI [29]: 42.5 µM; TGI [30]: 32.4 µM; TGI [31]: 21.6 µM; TGI [32]: 36.8 µM; TGI [33]: > 100 µM; TGI [34]: 88.1 µM; TGI [35]: > 100 µM; TGI [36]: 42 µM; TGI [37]: 49.1 µM; TGI [38]: 48.1 µM; TGI [39]: 9.46 µM; TGI [40]: 68.7 µM; TGI [41]: 97.7 µM; TGI [42]: > 100 µM; TGI [43]: 36 µM; TGI [44]: 52.9 µM; TGI [45]: 29.4 µM; TGI [46]: > 100 µM; TGI [47]: 40.6 µM; TGI [48]: 58.4 µM; TGI [49]: > 100 µM; TGI [50]: 29.7 µM; TGI [51]: 75 µM; TGI [52]: > 100 µM; TGI [53]: 37.1 µM; TGI [54]: > 100 µM; TGI [55]: 37 µM; TGI [56]: 30.2 µM

What does the source list for `O=C(O)c1cc(=O)c2cc(C(=O)c3cccs3)c(Cl)c(Cl)c2o1`?
TGI [1]: > 100 µM; TGI [2]: > 100 µM; TGI [3]: > 100 µM; TGI [57]: > 100 µM; TGI [5]: > 100 µM; TGI [6]: > 100 µM; TGI [58]: > 100 µM; TGI [9]: > 100 µM; TGI [10]: > 100 µM; TGI [13]: > 100 µM; TGI [14]: > 100 µM; TGI [15]: > 100 µM; TGI [17]: > 100 µM; TGI [18]: > 100 µM; TGI [19]: > 100 µM; TGI [20]: > 100 µM; TGI [59]: > 100 µM; TGI [60]: > 100 µM; TGI [22]: > 100 µM; TGI [23]: > 100 µM; TGI [28]: > 100 µM; TGI [29]: > 100 µM; TGI [30]: > 100 µM; TGI [31]: > 100 µM; TGI [61]: > 100 µM; TGI [33]: > 100 µM; TGI [34]: > 100 µM; TGI [35]: > 100 µM; TGI [36]: > 100 µM; TGI [38]: > 100 µM; TGI [40]: > 100 µM; TGI [41]: > 100 µM; TGI [43]: > 100 µM; TGI [44]: > 100 µM; TGI [45]: > 100 µM; TGI [46]: > 100 µM; TGI [47]: > 100 µM; TGI [48]: > 100 µM; TGI [49]: > 100 µM; TGI [62]: > 100 µM; TGI [50]: > 100 µM; TGI [51]: > 100 µM; TGI [63]: > 100 µM; TGI [53]: > 100 µM; TGI [54]: > 100 µM; TGI [55]: > 100 µM; TGI [56]: > 100 µM

Reference: PubChem BioAssay (NCI)
